The results in this text go back to patent US10047084B2, “Imidazolone derivatives, pharmaceutical compositions and uses thereof” (BEIJING FORELANDPHARMA CO. LTD., priority 2013, dated 2018).

pEC50, pIC50: −log10 of the molar value.

One assay addresses mTOR kinase (Homo sapiens (Human), UniProt P42345). Description: mTOR kinase activity assay (TR-FRET, GFP-4EBP1 substrate). The class given is biochemical. Particulars: read-out: Enzyme (mTOR) IC50. The protocol: 1. mTOR Kinase Activity Assay: The inhibition of the mTOR protein kinase activity by the compounds was determined by the enzymatic activity assay in vitro. The detection kit supplied by Invitrogen was used to detect the inhibition of the activity of the mTOR […]. The principle of the assay was as follows: mTOR kinase, fluorescein-labeled substrate and ATP were mixed, and after the reaction, EDTA and terbium-labeled first antibody were added. During the chemical reaction process of the mTOR kinase, the antibody recognized the phosphorylated and fluorescein-labeled substrate, and then the “time-resolved fluorescence resonance energy transfer” (TR-FRET) effect was enhanced. TR-FRET effect was calculated as the ratio of signals from the acceptor fluorescein to signals from the donor terbium. The amount of the antibody bound to the tracer was directly proportional to the amount of the phosphorylated substrate after the reaction. In this way, the kinase activity can be detected. In this assay, the substrate of the mTOR kinase was green fluorescent protein-coupled 4E binding protein 1 (GFP-4EBP1).
1.1 Materials and Instruments:
4-Hydroxyethylpiperazine ethanesulfonic acid (HEPES, Sigma, Cat# SH3375), ethylene glycol-bis-(2-aminoethylether)-tetraacetic acid (EGTA, Sigma, Cat# E3889), manganese chloride (MnCl2, Sigma, Cat# M1787), Tween-20 (Tween-20, Amresco), 1,4-dithiothreitol (DTT, Merck, CB233155),

Another assay relates to PC-3. Description: CTG cell survival assay, PC-3. The assay is classed as cell-based. Particulars: Homo sapiens, PC-3 cells. An excerpt: (§1) 2. CTG Cell Survival Assay:
(§2) ATP is necessarily produced during the metabolic activities of viable cells, and there is a linear relationship between the content of ATP and the number of viable cells. Cell viability assay by CTG chemiluminescence is a general method for detecting the number of viable cells in the culture cells based on this principle. The addition of the CellTiter-Glo (CTG) reagent may induce cell lysis and produce chemiluminescent signals directly proportional to the amount of ATP in the well-plate, and thereby the cell proliferation activity in the well-plate can be measured by the reading values from the chemiluminescence.
(§3) 2.1 Experimental Materials and Instruments:
(§4) 2.4 Experimental Procedure: • 1.4.1 Cell Thawing: Cryogenic vials were removed from the liquid nitrogen container, directly immersed in a water bath at 37° C., and shaked from time to time to thaw. The cryogenic vials were removed from the water bath at 37° C., and transferred to the biosafe cabinet. Their lids were opened, and the cell suspensions were aspirated with pipettes, added to centrifuge tubes, and then added with more than 10 volumes of culture solution, mixed well; centrifuged for 5 min at 1000 rpm; the supernatant was discarded, and medium containing cell growth was added to resuspend cells. All cell suspensions were seeded to the T25 culture flasks and static cultured in an incubator at 37° C.; the culture solution were changed once on the next day, and continued to be cultured. • 2.4.2 Cell Passaging: After cells were grown to logarithmic phase and were 80%-90% confluent, cells were removed and placed in the biosafe cabinet, the old culture solution was discarded, and the cells were wetted and washed with PBS once or twice. An appropriate amount of 0.25% Trypsin-EDTA solution was added to the culture flasks. The flasks were placed in the carbon dioxide incubator at 37° C. for 2-5 min. An appropriate amount of cell growth medium containing 10% PBS was added to terminate the digestion, lightly swished, and transferred to the centrifuge tubes and centrifuged for 5 min at 1000 rpm. The cells were prepare (into cell suspensions for passaging and experimental use. • 2.4.3 Cell Plating • 2.4.3.1 A cell suspension was prepared: After cells were grown to logarithmic phase and were 80%-90% confluent, the cells were removed to the biosafe cabinet, and the old culture solution was discarded, then the cells were wetted and washed with PBS once or twice. An appropriate amount of 0.25% Trypsin-EDTA solution was added to the culture flask. The flask was placed in a carbon dioxide incubator at 37° C. for 2-5 min. An appropriate amount of the cell growth medium containing 10% PBS was added to terminate digestion, and was lightly swished. The solution was transferred to a centrifuge tube, centrifuged for 5 min at 1000 rpm, and counted. […] Secondly, 20 uM of the compound to be tested was diluted with the cell growth medium containing 0.2% DMSO in 3-fold dilution to obtain 9 concentrations, and there were 10 concentration gradients in total. • 2.4.4.3 Addition of the compounds to be tested: the prepared gradient dilution solutions of compounds to be tested were taken and added to the cell culture plate at 100 ul/well; at this point, the maximum concentration of compounds to be tested was 10 uM, and the concentration of DMSO was 0.1%.

The next assay relates to SK-BR3/BT474. Description: CTG cell survival assay, SK-BR3/BT474. The assay is classed as cell-based. Conditions: SK-BR3/BT474 cells.
Description: as §1, §2, §3, §4

A further assay concerns MV-4-11. The assay can be described thus: CTG cell survival assay, MV-4-11. The assay is classed as cell-based. Particulars: Homo sapiens, MV4-11, MV-4-11 cells.
Description: as §1, §2, §3
2.1.1 Experimental Materials: compounds to be tested, cell basal culture medium, RPMI Medium 1640 (Invitrogen, Cat#11875-093), fetal calf serum (FBS): Hyclone FETAL BOVINE SERUM DEFINED (Invitrogen, Cat#SH30070.03), antibiotics: Penicilin Streptomycin (Invitrogen, Cat#15140-122), phosphate buffer (Corning Cellgro, Cat#R21-040-CV), cell digestive solution: 0.25% Trypsin-EDTA (Invitrogen, Cat#25200-056), CTG detection kit: Promega, Cat#G7571, flat-bottom 96-well black bottom plate: NUNC, Cat#165305, T25 culture flask: NUNC, Cat#156367, T75 culture flask: NUNC, Cat#156439
2.2 Experimental Instruments: Carbon Dioxide Incubator, SANYO-MCO-20AIC, Biosafe Cabinet: BSC-1360-LIIA2, Table-Top High-Speed Refrigerated Centrifuge: SorvallST 16R, Microplate Rapid Oscillator: QB-9001, M3 Reader: SpectraMax M3, Microscope: OLYMPUS-CKX41/CKX31.
2.3 Preparation of Solutions and Reagents: Formulation of cell growth medium: RPMI Medium 1640+10% FBS+antibiotics, others: trypsin digestive solution, phosphate buffer (PBS), DMSO, CTG detection kit.
2.4 Experimental Procedure: • 1.4.1 Cell Thawing: Cryogenic vials were removed from the liquid nitrogen container, directly immersed in a water bath at 37° C., and shaked from time to time to thaw. The cryogenic vials were removed from the water bath at 37° C., and transferred to the biosafe cabinet. Their lids were opened, and the cell suspensions were aspirated with pipettes, added to centrifuge tubes, and then added with more than 10 volumes of culture solution, mixed well; centrifuged for 5 min at 1000 rpm; the supernatant was discarded, and medium containing cell growth was added to resuspend cells. All cell suspensions were seeded to the T25 culture flasks and static cultured in an incubator at 37° C.; the culture solution were changed once on the next day, and continued to be cultured. • 2.4.2 Cell Passaging: After cells were grown to logarithmic phase and were 80%-90% confluent, cells were removed and placed in the biosafe cabinet, the old culture solution was discarded, and the cells were wetted and washed with PBS once or twice. An appropriate amount of 0.25% Trypsin-EDTA solution was added to the culture flasks. The flasks were placed in the carbon dioxide incubator at 37° C. for 2-5 min. An appropriate amount of cell growth medium containing 10% PBS was added to terminate the digestion, lightly swished, and transferred to the centrifuge tubes and centrifuged for 5 min at 1000 rpm. The cells were prepare (into cell suspensions for passaging and experimental use. • 2.4.3 Cell Plating • 2.4.3.1 A cell suspension was prepared: After cells were grown to logarithmic phase and were 80%-90% confluent, the cells were removed to the biosafe cabinet, and the old culture solution was discarded, then the cells were wetted and washed with PBS once or twice. An appropriate amount of 0.25% Trypsin-EDTA solution was added to the culture flask. The flask was placed in a carbon dioxide incubator at 37° C. for 2-5 min. An appropriate amount of the cell growth medium containing 10% PBS was added to terminate digestion, and was lightly swished. The solution was transferred to a centrifuge tube, centrifuged for 5 min at 1000 rpm, and counted. […]

Sequence of mTOR kinase (P42345 1360-2549): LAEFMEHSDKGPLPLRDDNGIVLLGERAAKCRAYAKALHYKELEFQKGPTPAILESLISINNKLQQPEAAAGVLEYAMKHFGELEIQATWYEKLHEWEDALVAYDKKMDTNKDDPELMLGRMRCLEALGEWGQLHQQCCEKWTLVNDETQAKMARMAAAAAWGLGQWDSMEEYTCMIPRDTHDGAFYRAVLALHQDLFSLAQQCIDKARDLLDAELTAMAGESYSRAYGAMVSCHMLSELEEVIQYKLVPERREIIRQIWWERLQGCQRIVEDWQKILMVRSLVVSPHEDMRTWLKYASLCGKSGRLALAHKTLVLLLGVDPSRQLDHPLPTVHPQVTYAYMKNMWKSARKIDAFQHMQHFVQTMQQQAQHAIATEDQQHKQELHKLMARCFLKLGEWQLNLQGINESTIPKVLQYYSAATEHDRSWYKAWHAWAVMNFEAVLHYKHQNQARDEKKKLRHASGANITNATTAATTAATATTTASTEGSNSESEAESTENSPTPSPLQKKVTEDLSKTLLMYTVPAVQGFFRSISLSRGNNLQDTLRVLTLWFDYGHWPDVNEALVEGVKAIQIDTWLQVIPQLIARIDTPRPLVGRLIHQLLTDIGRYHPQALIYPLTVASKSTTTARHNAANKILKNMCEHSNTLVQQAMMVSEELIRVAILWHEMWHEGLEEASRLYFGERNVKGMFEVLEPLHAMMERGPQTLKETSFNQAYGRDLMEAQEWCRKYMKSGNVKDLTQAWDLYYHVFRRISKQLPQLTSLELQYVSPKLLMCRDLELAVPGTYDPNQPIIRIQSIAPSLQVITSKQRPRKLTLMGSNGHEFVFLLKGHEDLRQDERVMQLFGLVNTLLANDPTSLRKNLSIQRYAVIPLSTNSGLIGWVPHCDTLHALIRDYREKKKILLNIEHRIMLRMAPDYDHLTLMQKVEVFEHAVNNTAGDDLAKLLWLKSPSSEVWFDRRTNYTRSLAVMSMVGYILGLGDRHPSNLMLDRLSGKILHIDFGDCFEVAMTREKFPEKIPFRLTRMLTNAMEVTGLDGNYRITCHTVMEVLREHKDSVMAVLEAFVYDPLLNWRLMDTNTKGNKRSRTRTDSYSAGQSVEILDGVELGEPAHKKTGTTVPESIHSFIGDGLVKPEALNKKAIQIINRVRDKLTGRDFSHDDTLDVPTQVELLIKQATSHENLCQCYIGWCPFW

`Cn1cc(-c2ccc(-c3ccc4ncc5c(c4c3)n(C3CCCN(C(=O)c4nc[nH]n4)C3)c(=O)n5C)cn2)cn1` (stereo not shown) [Example 2, 1-(1-(1H-1,2,4-triazole-3-carbonyl)piperidin-3-yl)-3-methyl-8-(6-(1-methyl-1H-pyrazol-4-yl)pyridin-3-yl)-1H-imidazo[4,5-c]quinolin-2(3H)-one]: the pIC50 on mTOR kinase is 6.00 to 7.00.

As for `Cn1cc(-c2ccc(-c3ccc4ncc5c(c4c3)n(C3CCN(C(=O)CO)C3)c(=O)n5C)cn2)cn1` (stereo not shown) [Example 7, 1-(1-(2-hydroxyacetyl)pyrrolidin-3-yl)-3-methyl-8-(6-(1-methyl-1H-pyrazol-4-yl)pyridin-3-yl)-1H-imidazo[4,5-c]quinolin-2(3H)-one], the negative logarithm of the EC50 (pEC50) in the assay with PC-3 and in the assay with SK-BR3/BT474 was greater than 6.00 each time. The negative-log IC50 (pIC50) on mTOR kinase was 6.00 to 7.00.

Consider `CC(=O)N1CCC(n2c(=O)n(C)c3cnc4ccc(-c5ccc(-c6cnn(C)c6)nc5)cc4c32)C1` (stereo not shown) [Example 11, 1-(1-acetylpyrrolidin-3-yl)-3-methyl-8-(6-(1-methyl-1H-pyrazol-4-yl)pyridin-3-yl)-1H-imidazo[4,5-c]quinolin-2(3H)-one], for which the pEC50 with PC-3 and with SK-BR3/BT474 was greater than 6.00 in each case. Besides, on mTOR kinase, the pIC50 is 6.00 to 7.00.

As to `Cn1cc(-c2ccc(-c3ccc4ncc5c(c4c3)n(C3CCN(S(=O)(=O)c4ccc(Cl)cc4)C3)c(=O)n5C)cn2)cn1` (stereo not shown) [Example 13, 1-(1-((4-chlorphenyl)sulfonyl)pyrrolidin-3-yl)-3-methyl-8-(6-(1-methyl-1H-pyrazol-4-yl)pyridin-3-yl)-1H-imidazo[4,5-c]quinolin-2(3H)-one], the pEC50 in the assay on PC-3 was greater than 6.00; in the assay on SK-BR3/BT474 it was greater than 6.30. In addition, at mTOR kinase, the pIC50 was 6.00 to 7.00.

Take `Cc1ccc(S(=O)(=O)N2CCC(n3c(=O)n(C)c4cnc5ccc(-c6ccc(-c7cnn(C)c7)nc6)cc5c43)C2)cc1` (stereo not shown) [Example 14, 3-methyl-8-(6-(1-methyl-1H-pyrazol-4-yl)pyridin-3-yl)-1-(1-p-toluenesulfonylpyrrolidin-3-yl)-1H-imidazo[4,5-c]quinolin-2(3H)-one]: the pEC50 with PC-3 is greater than 6.00; in the assay on SK-BR3/BT474 it was greater than 6.70. For the same molecule, the negative-log IC50 (pIC50) on mTOR kinase is 6.00 to 7.00.

For the molecule `Cn1cc(-c2ccc(-c3ccc4ncc5c(c4c3)n(C3CCN(S(N)(=O)=O)C3)c(=O)n5C)cn2)cn1` (stereo not shown) [Example 15, 3-(3-methyl-8-(6-(1-methyl-1H-pyrazol-4-yl)pyridin-3-yl)-2-oxo-2,3-dihydro-1H-imidazo[4,5-c]quinolin-1-yl)pyrrolidine-1-sulfamide], the pEC50 is greater than 6.30 with PC-3 and greater than 6.00 in the assay with SK-BR3/BT474. Moreover, the pIC50 at mTOR kinase was 6.00 to 7.00.

With `Cn1cc(-c2ccc(-c3ccc4ncc5c(c4c3)n(C3CCN(C(=O)C(F)(F)F)C3)c(=O)n5C)cn2)cn1` (stereo not shown) [Example 16, 3-methyl-8-(6-(1-methyl-1H-pyrazol-4-yl)pyridin-3-yl)-1-(1-(2,2,2-trifluoroacetyl)pyrrolidin-3-yl)-1H-imidazo[4,5-c]quinolin-2(3H)-one], the pEC50 in the assay on PC-3 was greater than 6.00. Also, the pIC50 on mTOR kinase is 6.00 to 7.00.

For the molecule `Cn1c(=O)n([C@H]2CC[C@@H](O)CC2)c2c3cc(-c4ccc(N)nc4)ccc3ncc21` [Example 26, 8-(6-aminopyridin-3-yl)1-((1s,4s)-4-hydroxycyclohexyl)-3-methyl-1H-imidazo[4,5-c]quinolin-2(3H)-one], the values for the pEC50 in the assay on MV-4-11 and in the assay on SK-BR3/BT474 were greater than 7.30 and greater than 6.70, respectively. Further, the negative-log IC50 (pIC50) at mTOR kinase is greater than 8.00.

Turning to `CCS(=O)(=O)N1CC[C@H](n2c(=O)n(C)c3cnc4ccc(-c5ccc(-c6cnn(C)c6)nc5)cc4c32)C1` [Example 29, (S)-1-(1-(ethylsulfonyl)pyrrolidin-3-yl)-3-methyl-8-(6-(1-methyl-1H-pyrazol-4-yl)pyridin-3-yl)-1H-imidazo[4,5-c]quinolin-2(3H)-one], the pEC50 in the assay with MV-4-11 and with SK-BR3/BT474 was greater than 7.00 in each case. In addition, the pIC50 on mTOR kinase was greater than 8.00.

Regarding `Cn1cc(-c2ccc(-c3ccc4ncc5c(c4n3)n([C@H]3CCN(S(C)(=O)=O)C3)c(=O)n5C)cn2)cn1` [Example 38, (S)-3-methyl-8-(6-(1-methyl-1H-pyrazol-4-yl)pyridin-3-yl)-1-(1-(methanesulfonyl)pyrrolidin-3-yl)-1H-imidazol-[4,5-c][1,5]naphthyridin-2(3H)-one], the pEC50 in the assay on PC-3 is 7.68. Also, the negative-log IC50 (pIC50) on mTOR kinase was greater than 8.00.

With `Cn1c(=O)n([C@H]2CCN(S(C)(=O)=O)C2)c2c3nc(-c4ccc(-c5ccccc5)nc4)ccc3ncc21` [Example 39, (S)-3-methyl-1-(1-(methanesulfonyl)pyrrolidin-3-yl)-8-(6-phenylpyridin-3-yl)-1H-imidazo[4,5-c][1,5]naphthyridin-2(3H)-one], the pEC50 with PC-3 was 7.43. In addition, at mTOR kinase, the pIC50 was greater than 8.00.
